By pIC50 is commonly meant −log10 of the IC50, conventionally taken in molar units.

Each structure is given as a SMILES string. pIC50: −log10 of the molar value.

Among the data in patent publication US20250129049A1, “1H-PYRAZOLE-3-AMINE DERIVATIVE HAVING BICYCLIC BACKBONE” (Sumitomo Pharma Co., Ltd., priority 2021, published 2025) are IC50 values, retold here.

For one assay, the system named is ES-2 cells. Briefly: Cell growth suppression experiment (ES-2). It is filed as cell-based. To be noted: Homo sapiens, 48 h, cultured 2 days, CellTiter-Glo 3D. The method, then:
ES-2 cells were obtained from the American Type Culture Collection (ATCC). These cells were cultured at 37° C. in the presence of 5% CO2 in a McCoy's 5a medium containing 10% fetal bovine serum and 1% penicillin/streptomycin.
500 cells were seeded for each well in a 384-well plate, and the evaluated compound was added to the final DMSO concentration of 0.1% to culture the cells for 2 days. After completion of the culture, the cell viability rate was calculated using CellTiter-Glo (registered trademark) 3D Reagent (Promega, G968B).
A general note: In ATP-based viability assays light output follows the ATP content of the culture.

A further assay deals with CHK1 kinase (Homo sapiens (Human), UniProt O14757).
Chain of CHK1 kinase (O14757 whole entry): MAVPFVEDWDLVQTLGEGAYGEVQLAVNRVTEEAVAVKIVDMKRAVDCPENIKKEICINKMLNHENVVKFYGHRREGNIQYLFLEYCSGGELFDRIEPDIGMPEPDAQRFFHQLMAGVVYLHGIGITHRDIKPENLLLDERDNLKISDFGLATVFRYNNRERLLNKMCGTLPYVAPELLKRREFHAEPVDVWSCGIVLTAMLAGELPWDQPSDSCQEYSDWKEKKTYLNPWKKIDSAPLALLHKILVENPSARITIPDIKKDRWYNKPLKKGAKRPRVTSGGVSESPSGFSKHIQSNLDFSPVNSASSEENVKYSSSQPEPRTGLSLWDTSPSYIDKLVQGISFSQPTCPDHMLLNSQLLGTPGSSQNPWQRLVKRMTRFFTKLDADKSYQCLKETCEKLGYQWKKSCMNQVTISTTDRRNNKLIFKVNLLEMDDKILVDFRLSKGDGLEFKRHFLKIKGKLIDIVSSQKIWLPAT

`N#Cc1cnc(Nc2cc(-c3c(OCCCN)ccc4cccnc34)[nH]n2)cn1` [Example 1, 5-({5-[7-(3-aminopropoxy)quinolin-8-yl]-1H-pyrazol-3-yl}amino)pyrazine-2-carbonitrile]: the negative logarithm of the IC50 (pIC50) in the assay with ES-2 cells is 8.31; against CHK1 kinase it was 9.43. As to `N#Cc1cnc(Nc2cc(-c3c(OCCCN)ccc4ccoc34)[nH]n2)cn1` [Example 2, 5-({5-[6-(3-aminopropoxy)-1-benzofuran-7-yl]-1H-pyrazol-3-yl}amino)pyrazine-2-carbonitrile], the pIC50 with ES-2 cells is 8.54; against CHK1 kinase it was 9.60. In the assay on ES-2 cells, `CC1(COc2ccc3c(c2-c2cc(Nc4cnc(C#N)cn4)n[nH]2)OCC3)CNC1` [Example 5, 5-[(5-{6-[(3-methylazetidin-3-yl)methoxy]-2,3-dihydro-1-benzofuran-7-yl}-1H-pyrazol-3-yl)amino]pyrazine-2-carbonitrile] had a pIC50 of 8.17. As to `N#Cc1cnc(Nc2cc(-c3c(OCCCN)cnc4ccnn34)[nH]n2)cn1` [Example 7, 5-({5-[6-(3-aminopropoxy)pyrazolo[1,5-a]pyrimidin-7-yl]-1H-pyrazol-3-yl}amino)pyrazine-2-carbonitrile], the results for the pIC50 in the assay on ES-2 cells and at CHK1 kinase were 6.33 and 8.77, respectively. As for `N#Cc1cnc(Nc2cc(-c3c(OCC(F)(F)CN)cnc4cccnc34)[nH]n2)cn1` [Example 9, 5-({5-[3-(3-amino-2,2-difluoropropoxy)-1,5-naphthyridin-4-yl]-1H-pyrazol-3-yl}amino)pyrazine-2-carbonitrile], the negative logarithm of the IC50 (pIC50) was 8.33 in the assay with ES-2 cells and 9.19 at CHK1 kinase. As to `N#Cc1cnc(Nc2cc(-c3c(OCC4(CN)CC4)cnc4cccnc34)[nH]n2)cn1` [Example 10, 5-{[5-(3-{[1-(aminomethyl)cyclopropyl]methoxy}-1,5-naphthyridin-4-yl)-1H-pyrazol-3-yl]amino}pyrazine-2-carbonitrile], the figures for the negative logarithm of the IC50 (pIC50) with ES-2 cells and against CHK1 kinase were 8.18 and 9.47, respectively.

`CC1(COc2cnc3cccnc3c2-c2cc(Nc3cnc(C#N)cn3)n[nH]2)CNC1` [Example 11, 5-[(5-{3-[(3-methylazetidin-3-yl)methoxy]-1,5-naphthyridin-4-yl}-1H-pyrazol-3-yl)amino]pyrazine-2-carbonitrile]: the negative logarithm of the IC50 (pIC50) with ES-2 cells was 7.83; at CHK1 kinase, 9.41.

Consider `N#Cc1cnc(Nc2cc(-c3c(OCCCN)cnc4c3OCC4)[nH]n2)cn1` [Example 13, 5-({5-[6-(3-aminopropoxy)-2,3-dihydrofuro[3,2-b]pyridin-7-yl]-1H-pyrazol-3-yl}amino)pyrazine-2-carbonitrile], for which the negative-log IC50 (pIC50) was 7.70 in the assay with ES-2 cells and 9.38 at CHK1 kinase. For `CC1(COc2cnc3c(c2-c2cc(Nc4cnc(C#N)cn4)n[nH]2)OCC3)CNC1` [Example 15, 5-[(5-{6-[(3-methylazetidin-3-yl)methoxy]-2,3-dihydrofuro[3,2-b]pyridin-7-yl}-1H-pyrazol-3-yl)amino]pyrazine-2-carbonitrile] the same measures were 8.14 and 9.64. For `Cc1nc2ccc(OCCCN)c(-c3cc(Nc4cnc(C#N)cn4)n[nH]3)c2o1` [Example 16, 5-({5-[6-(3-aminopropoxy)-2-methyl-1,3-benzoxazol-7-yl]-1H-pyrazol-3-yl}amino)pyrazine-2-carbonitrile] the same measures were 6.31 and 9.35. For `N#Cc1cnc(Nc2cc(-c3c(OCC4(CN)CC4)ccc4ccnn34)[nH]n2)cn1` [Example 17, 5-{[5-(6-{[1-(aminomethyl)cyclopropyl]methoxy)pyrazolo[1,5-a]pyridin-7-yl)-1H-pyrazol-3-yl]amino}pyrazine-2-carbonitrile] the same measures were 8.43 and 9.57. Take `CC1(COc2ccc3ccnn3c2-c2cc(Nc3cnc(C#N)cn3)n[nH]2)CNC1` [Example 18, 5-[(5-{6-[(3-methylazetidin-3-yl)methoxy]pyrazolo[1,5-a]pyridin-7-yl)-1H-pyrazol-3-yl)amino]pyrazine-2-carbonitrile]: the values for the pIC50 in the assay with ES-2 cells and on CHK1 kinase were 8.33 and 9.47, respectively. The matching figures for `N#Cc1cnc(Nc2cc(-c3c(OCC4(CN)CC4)ccc4ccoc34)[nH]n2)cn1` [Example 19, 5-{[5-(6-{[1-(aminomethyl)cyclopropyl]methoxy}-1-benzofuran-7-yl}-1H-pyrazol-3-yl]amino}pyrazine-2-carbonitrile]: 8.34 and 9.59. Molecule `N#Cc1cnc(Nc2cc(-c3c(OCC4(CN)CC4(F)F)ccc4ccoc34)[nH]n2)cn1` (stereo not drawn) [Example 20, 5-{[5-(6-{[1-(aminomethyl)-2,2-difluorocyclopropyl]methoxy)-1-benzofuran-7-yl)-1H-pyrazol-3-yl]amino}pyrazine-2-carbonitrile] gave a negative-log IC50 (pIC50) in the assay with ES-2 cells of 7.79.

`N#Cc1cnc(Nc2cc(-c3c(O[C@@H]4CC[C@@H](N)C4)cnc4c3OCC4)[nH]n2)cn1` [Example 21, 5-{[5-(6-{[(1R,3R)-3-aminocyclopentyl]oxy)-2,3-dihydrofuro[3,2-b]pyridin-7-yl)-1H-pyrazol-3-yl]amino}pyrazine-2-carbonitrile] showed a negative-log IC50 (pIC50) in the assay with ES-2 cells of 7.93. Regarding `N#Cc1cnc(Nc2cc(-c3c(OCC4(C(F)F)CNC4)cnc4c3OCC4)[nH]n2)cn1` [Example 22, 5-{[5-(6-{[3-(difluoromethyl)azetidin-3-yl]methoxy}-2,3-dihydrofuro[3,2-b]pyridin-7-yl)-1H-pyrazol-3-yl]amino}pyrazine-2-carbonitrile], the pIC50 in the assay on ES-2 cells was 7.86; against CHK1 kinase, 9.41. The matching figures for `N#Cc1cnc(Nc2cc(-c3c(OCC4(F)CNC4)cnc4c3OCC4)[nH]n2)cn1` [Example 23, 5-[(5-{6-[(3-fluoroazetidin-3-yl)methoxy]-2,3-dihydrofuro[3,2-b]pyridin-7-yl}-1H-pyrazol-3-yl)amino]pyrazine-2-carbonitrile]: 8.17 and 9.52. Turning to `C[C@@H](Oc1cnc2c(c1-c1cc(Nc3cnc(C#N)cn3)n[nH]1)OCC2)C1CNC1` [Example 25, 5-[(5-{6-[(1R)-1-(azetidin-3-yl)ethoxy]-2,3-dihydrofuro[3,2-b]pyridin-7-yl}-1H-pyrazol-3-yl)amino]pyrazine-2-carbonitrile], the negative-log IC50 (pIC50) was 8.19 in the assay with ES-2 cells and 9.37 on CHK1 kinase.

Consider `N#Cc1cnc(Nc2cc(-c3c(OC[C@H]4CCNC4)cnc4c3OCC4)[nH]n2)cn1` [Example 26, 5-{[5-(6-{[(3S)-pyrrolidin-3-yl]methoxy}-2,3-dihydrofuro[3,2-b]pyridin-7-yl)-1H-pyrazol-3-yl]amino}pyrazine-2-carbonitrile], for which the negative logarithm of the IC50 (pIC50) in the assay with ES-2 cells was 8.03; against CHK1 kinase, 9.47. The matching figures for `CNCCCOc1cnc2c(c1-c1cc(Nc3cnc(C#N)cn3)n[nH]1)OCC2` [Example 27, 5-[(5-{6-[3-(methylamino)propoxy]-2,3-dihydrofuro[3,2-b]pyridin-7-yl}-1H-pyrazol-3-yl)amino]pyrazine-2-carbonitrile]: 8.07 and 9.66. Regarding `C[C@@H](CN)COc1cnc2c(c1-c1cc(Nc3cnc(C#N)cn3)n[nH]1)OCC2` [Example 30, 5-[(5-{6-[(2S)-3-amino-2-methylpropoxy]-2,3-dihydrofuro[3,2-b]pyridin-7-yl}-1H-pyrazol-3-yl)amino]pyrazine-2-carbonitrile], the pIC50 in the assay with ES-2 cells is 7.83; on CHK1 kinase, 9.37.
